“Also recorded” adds a separate entry of the source. Non-standard residues stand in square brackets, D forms with d. Residues, ends and D or L forms follow the SMILES beside them. Nle = CCCC[C@H](N)C(=O)O
Columns and labels:
[1] = system: mouse B lymphoblastoid cell line (LB27.4); test: MHC-I antigen presentation, intact cells (OVA loaded by hypotonic lysis of pinosomes); type: cell-based; conditions: 50 μM MG 101 in media; FIG. 6
Procedure: (§1) Antigen-presenting cells (APCs)--mouse B lymphoblastoid cell line (LB27.4)--were washed free of serum and loaded with an ovalbumin peptide (residues 257-263), which corresponds to the sequence these cells naturally generate and present. The APCs were incubated 1 hr at 37° C., electroporated with antigen, incubated 10 min on ice and washed. The antigen loaded cells were incubated 2 hrs at 37° C., fixed with paraformaldehyde, and washed. MG 101 at the concentrations indicated in FIG. 5 was present in all steps prior to fixation. APCs were assayed for antigen presentation as described in Rock et al., J. Immunol. 145:804-811 (1990) and Carbone et al., J. Exp Med. 171:377-387 (1990). […] In the left panel, APCs were treated with (open circles) or without (closed circles) MG 101 and electroporated with ovalbumin. In the right panel, APCs were treated with (open circles) or without (closed circles) MG 101 and electroporated with ovalbumin peptide. Conditions were the same as in Example 7, except that (1) in one group of cells (referred to as MG 101 in media) MG 101 (50 μM) was omitted from the antigen load while in a parallel group (referred to as MG 101 in Ag load) MG 101 (50 μM) was included in the antigen load; and (2) OVA was introduced into the cytoplasm by hypotonic lysis of pinosomes (3) instead of electroporation.

rat diaphragm muscle [2] = test: Protein degradation in incubated rat diaphragm
Procedure: Rat diaphragm muscle was cut into quarters and incubated in medium containing a mixture of amino acids, insulin, inhibitors of lysosomal and calcium dependent proteolysis, and MG 101 at the concentrations shown in FIG. 2. After 1 hour, ^3 H-phenylalanine was added and the incubation continued for 2 hours. Under these conditions, the ATP-dependent ubiquitin pathway is largely responsible for muscle protein degradation. After incubation, the tissue was homogenized and free tyrosine of the homogenate and medium was assayed separately. ^3 -phenylalanine incorporation into protein was also measured. Values are the means +SE of data from 7 animals. Protein synthesis was calculated from the incorporation of ^3 H-phenylalanine, and net protein breakdown was calculated from the release of tyrosine into the incubation medium. The total rate of protein breakdown is calculated from the equation:
Total protein breakdown=Net protein breakdown+Protein synthesis

rat diaphragm muscle [3] = test: T3 induced protein degradation in incubated rat diaphragm; conditions: 40 μM MG 101; FIG. 3
Procedure: T3 was administered to hypophysectomized rats for 7 days. […] After incubation, the tissue was homogenized, and ^3 -phenylalanine incorporation into protein and free tyrosine of the medium was measured.

[4] = system: mouse B lymphoblastoid cell line (LB27.4); test: MHC-I antigen presentation, electroporated antigen-presenting cells; type: cell-based
Procedure: as §1, with “peptide.” for “peptide. Conditions were the same as in Example 7, except that (1) in one group of cells (referred to as MG 101 in media) MG 101 (50 μM) was omitted from the antigen load while in a parallel group (referred to as MG 101 in Ag load) MG 101 (50 μM) was included in the antigen load; and (2) OVA was introduced into the cytoplasm by hypotonic lysis of pinosomes (3) instead of electroporation.”

26S proteasome = target: T1, 26S proteasome (Oryctolagus cuniculus, UniProt G1T4Q9); test: Inhibition of the 26S proteasome (kinetic experiments); type: biochemical, Rabbit; conditions: summary of enzyme inhibition; read-out: Ki, 26S proteasome complex activity
T1 sequence (G1T4Q9 60-263): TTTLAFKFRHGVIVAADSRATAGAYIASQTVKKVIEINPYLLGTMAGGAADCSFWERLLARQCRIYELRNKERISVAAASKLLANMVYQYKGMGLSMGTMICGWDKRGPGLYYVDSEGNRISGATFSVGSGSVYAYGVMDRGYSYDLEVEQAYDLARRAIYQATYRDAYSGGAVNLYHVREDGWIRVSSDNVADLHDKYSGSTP
T1 sequence (G1SU71 1-241 partner): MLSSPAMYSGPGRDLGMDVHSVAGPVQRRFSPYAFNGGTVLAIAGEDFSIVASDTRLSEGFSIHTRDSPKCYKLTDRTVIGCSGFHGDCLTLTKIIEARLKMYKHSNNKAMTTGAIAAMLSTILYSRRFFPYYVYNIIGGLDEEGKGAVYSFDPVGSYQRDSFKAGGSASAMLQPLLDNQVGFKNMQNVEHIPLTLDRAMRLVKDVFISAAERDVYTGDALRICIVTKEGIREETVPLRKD
From the text: Tables I-III summarize results from kinetic experiments that measured the inhibition of the 20S and 26S proteasomes, as well as cathepsin B and calpain, enzymes that may also be involved in muscle protein turnover. In these tables, Ki values are reported, which are dissociation constants for the equilibrium that is established when enzyme and inhibitor interact to form the enzyme:inhibitor complex.
The substances and assay conditions are briefly summarized in the footnotes to Table I. MG 101 and MG 102, also known as Calpain Inhibitor I and II, were purchased from Calbiochem as catalogue products.
(^b) Rabbit muscle. Substrate: […]. [Mg:ATP] = 2 mM.

[5] = target: chymotrypsin-like activity of the proteasome; conditions: Vinitsky et al. 1992; slow binding inhibitors; cited from earlier work
RMA cells = test: Class I MHC assembly in RMA cells; type: cell-based
Procedure: Class I MHC molecules are peptide-binding receptors composed of a heavy and a light chain. Peptide binding to these molecules is essential for the stable association of the heavy and light chains. […] To test the effect of MG 101 on class I assembly, RMA cells were incubated with and without MG 101 (100 μM) for 1 hr at 37° C., electroporated with and without MG 101 (100 μM) as described in Example 7, and incubated with and without MG 101 (100 μM) for 3 hrs at 37° C. Over the last 30 min of incubation the cells were pulse labeled with ^35 S-methionine and were then washed and detergent lysates were prepared. Lysates were divided and class I binding peptides were added to one group. Class I molecules were immunoprecipitated with a mAb, Y3 (Townsend et al., Cell 62:285-295 (1990)), that only reacts with assembled class I heterodimers and analyzed as previously described ([…] et al., Nature 363:552-554 (1993)).

Q: With `CCCC[C@@H](C=O)NC(=O)[C@H](CC(C)C)NC(=O)[C@H](CC(C)C)NC(C)=O` [MG 101, Ac-Leu-Leu-Nle-H] (Ac-Leu-Leu-[Nle]-aldehyde) as the compound, how does the “Antigen presentation from ovalbumin in intact cells” value [1] read?
A: Its value is “can enter into living cells and inhibit antigen processing; also recorded: inhibits presentation of antigen from ovalbumin”.

Q: And the “Amino acid pools in incubated muscle” value (rat diaphragm muscle [2])?
A: The value was “nor does it significantly alter amino acid pools”.

Q: What about the “Protein synthesis in incubated muscle” value (rat diaphragm muscle [2]; 3H-phenylalanine incorporation) of the same compound?
A: Its value is “does not inhibit protein synthesis”.

Q: What about the “Protein degradation in incubated rat diaphragm” value (rat diaphragm muscle [2]; lysosomal and calcium dependent proteolysis inhibited, FIG. 2) of the same compound?
A: The value was “inhibits the breakdown of muscle protein; also recorded: inhibition of protein degradation”.

Q: And the “Protein degradation induced by T3 in incubated rat diaphragm” value (rat diaphragm muscle [3])?
A: Its value is “inhibits the accelerated proteolysis in muscle; also recorded: inhibition of protein degradation”.

Q: And the “MHC-I presentation of ovalbumin peptide” value ([4]; APCs electroporated with ovalbumin peptide, FIG. 5 right panel)?
A: The value was “fails to block the presentation of the specific peptide; also recorded: does not inhibit the presentation of electroporated peptide”.

Q: What about the “MHC-I presentation of ovalbumin” value ([4]; APCs electroporated with ovalbumin, FIG. 5 left panel) of the same compound?
A: The value was “inhibits the presentation of ovalbumin with class I MHC molecules; also recorded: inhibits presentation of antigen from ovalbumin”.

Q: And the Ki (26S proteasome)?
A: Its Ki is 2.9 µM.

Q: What about the Ki [5] of the same compound?
A: Its Ki is 5.7 µM.

Q: What about the “Assembly of class I heterodimers” value (RMA cells; 100 μM MG 101, FIG. 7) of the same compound?
A: The value was “markedly reduced”.

Q: And the “Class I complex formation from introduced antigenic peptide” value (RMA cells; 100 μM MG 101, FIG. 7 lane 4)?
A: The value was “fails to inhibit complex formation from introduced antigenic peptide”.

Q: What about the “Appearance of MHC-I molecules on the cell surface” value (RMA cells; FIG. 7) of the same compound?
A: The value was “specifically blocks the movement of functional MHC-I complexes to the cell surface; also recorded: blocks the appearance of MHC-I molecules on the cell surface”.

Q: What about the “Level of the individual class I subunits” value (RMA cells; control experiments) of the same compound?
A: The value was “does not affect the level of the individual subunits”.

Source: US5693617A, “Inhibitors of the 26s proteolytic complex and the 20s proteasome contained therein” (ProScript, Inc., priority 1995, dated 1997)
